Measured values published in patent US20260199323A1, “LIGAND COMPOUNDS FOR E3 UBIQUITIN LIGASE, PROTEIN DEGRADERS DEVELOPED ON BASIS OF LIGAND COMPOUNDS, AND USES THEREOF” (GLUETACS THERAPEUTICS (SHANGHAI) CO., LTD., priority 2021, published 2026).
Read-outs that look alike come from different tables or passages of the source.

Legend:
CCRF-CEM = assay: CCK-8 tumor cell proliferation, CCRF-CEM; type: cell-based, Human; details: CCRF-CEM, read-out: IC50 inhibiting proliferation of tumor cells, CCRF-CEM
Procedure, shortened: (§1)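 Cell viability (CCK-8) after compound exposure; IC50 calculated. Cells seeded, treated after 24 h, maximum dose 10 μM, 5-fold serial dilutions over 10 concentrations.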

MDA-MB-231 = assay: CCK-8 tumor cell proliferation, MDA-MB-231; type: cell-based, Human; details: Homo sapiens; Table 20, BCL-2 inhibitor based; MDA-MB-231; read-out: IC50 inhibiting proliferation of tumor cells, MDA-MB-231
Procedure, shortened: as §1

MM.1R = assay: CCK-8 tumor cell proliferation, MM.1R; type: cell-based; details: Table 20, BCL-2 inhibitor based, read-out: IC50 inhibiting proliferation of tumor cells, MM.1R
Procedure, shortened: as §1

MM.1S = assay: CCK-8 tumor cell proliferation, MM.1S; type: cell-based; details: Homo sapiens, MM1.S; Table 20, BCL-2 inhibitor based; MM.1S; read-out: IC50 inhibiting proliferation of tumor cells, MM.1S
Procedure, shortened: as §1

HCC827 = assay: CCK-8 tumor cell proliferation, HCC827; type: cell-based, Human; details: Homo sapiens; Table 20, BCL-2 inhibitor based; HCC827; read-out: IC50 inhibiting proliferation of tumor cells, HCC827
Method: The tumor cells used herein were cultured in a cell culture medium listed in table 4 at 37° C. in an incubator with 5% CO2.
(§2) After 24 h, 100 μL of the inoculated cells were treated with 0.5 μL of the compounds of the present disclosure (including the compounds in Tables 1 and 3, and compounds of examples) at 10 different successively decreasing concentrations (starting at the highest concentration of 10 μM; 5-fold serial dilutions). After the cells were treated with the compounds of the present disclosure for a period of time, the cell viability detection reagent was added to the culture medium for cell viability assessment according to the instructions provided with the CCK-8 kit. […] The growth inhibition of the compounds of the present disclosure on cells was plotted by Prism Graphpad software, and the IC50 values of the compounds of the present disclosure were calculated therefrom.

SR = assay: CCK-8 tumor cell proliferation, SR; type: cell-based, Human; details: Homo sapiens; Table 20, BCL-2 inhibitor based; SR; read-out: IC50 inhibiting proliferation of tumor cells, SR
Procedure, shortened: as §1

LNcap = assay: CCK-8 tumor cell proliferation, LNcap; type: cell-based, Human
Procedure, shortened: as §1

Mino = assay: CCK-8 tumor cell proliferation, Mino; type: cell-based, Human; details: Homo sapiens; Table 19, IRAK4 inhibitor based; Mino; read-out: IC50 inhibiting proliferation of tumor cells, Mino
Procedure, shortened: as §1

SU-DHL-4 = assay: CCK-8 tumor cell proliferation, SU-DHL-4; type: cell-based, Human; details: Table 19, IRAK4 inhibitor based, read-out: IC50 inhibiting proliferation of tumor cells, SU-DHL-4
Method: (§3) The tumor cells used herein were cultured in a cell culture medium listed in table 4 at 37° C. in an incubator with 5% CO2. Prior to experimentation, all cells used were correctly identified by STR profiling, and tested negative for mycoplasma through routine screenings.
as §2, with “IC50 values of the compounds of the present disclosure (including the compounds in Tables 1 and 3, and compounds of examples) were measured using the Meilun Cell Counting Kit-8 kit from Dalian Meilun Biotech Co., Ltd. Assay details are as follows: tumor cells were seeded in a 96-well plate at a density listed in Table 5. After 24” for “After 24”

MV-4-11 = assay: CCK-8 tumor cell proliferation, MV-4-11; type: cell-based, Human; details: Homo sapiens, MV4-11; Table 19, IRAK4 inhibitor based; MV-4-11; read-out: IC50 inhibiting proliferation of tumor cells, MV-4-11
Method: as §3
as §2, with “IC50 values of the compounds of the present disclosure (including the compounds in Tables 1 and 3, and compounds of examples) were measured using the Meilun Cell Counting Kit-8 kit from Dalian Meilun Biotech Co., Ltd. Assay details are as follows: tumor cells were seeded in a 96-well plate at a density listed in Table 5. After 24” for “After 24”

SW620 = assay: CCK-8 tumor cell proliferation, SW620; type: cell-based, Human; details: Table 19, IRAK4 inhibitor based, SW620, read-out: IC50 inhibiting proliferation of tumor cells, SW620
Procedure, shortened: as §1

Jurkat = assay: CCK-8 tumor cell proliferation, Jurkat; type: cell-based, Human; details: Table 19, IRAK4 inhibitor based, read-out: IC50 inhibiting proliferation of tumor cells, Jurkat
Procedure, shortened: as §1

CAL-62 = assay: CCK-8 tumor cell proliferation, CAL-62; type: cell-based, Human; details: Table 19, IRAK4 inhibitor based, CAL-62, read-out: IC50 inhibiting proliferation of tumor cells, CAL-62
Procedure, shortened: as §1

[1] = Homo sapiens, Table 20, BCL-2 inhibitor based
[2] = Homo sapiens, Table 20, BCL-2 inhibitor based, LNcap, read-out: IC50 inhibiting proliferation of tumor cells, LNcap
[3] = Homo sapiens, Table 19, IRAK4 inhibitor based
[4] = Homo sapiens, Table 19, IRAK4 inhibitor based, Lncap, read-out: IC50 inhibiting proliferation of tumor cells, Lncap

SMILES | IC50 (SU-DHL-4; Homo sapiens) | IC50 (SW620; Homo sapiens, SW-620) | IC50 (Jurkat; Homo sapiens) | IC50 (CCRF-CEM; [3]) | IC50 (LNcap; [4]) | IC50 (CAL-62; Homo sapiens) | also measured
CC1(C)CCC(c2ccc(Cl)cc2)=C(CN2CCN(c3ccc(C(=O)NS(=O)(=O)c4ccc(N[C@H](CCN5CCN(Cc6ccc7c(c6F)CN(C6CCC(=O)NC6=O)C7=O)CC5)CSc5ccccc5)c(S(=O)(=O)C(F)(F)F)c4)cc3)CC2)C1 (stereo partly drawn) [GT-03478, 4-(4-((4′-chloro-4,4-dimethyl-3,4,5,6-tetrahydro-[1,1′-biphenyl]-2-yl)methyl)piperazin-1-yl)-N-((4-(((2R)-4-(4-((2-(2,6-dioxopiperidin-3-yl)-4-fluoro-1-oxoisoindolin-5-yl)methyl)piperazin-1-yl)-1-(phenylthio)butan-2-yl)amino)-3-((trifluoromethyl)sulfonyl)phenyl)sulfonyl)benzamide] |  |  |  |  |  |  | IC50 (CCRF-CEM; [1]): < 50 nM; IC50 (MDA-MB-231): < 50 nM; IC50 (MM.1R): < 50 nM; IC50 (MM.1S): < 50 nM; IC50 (HCC827): < 50 nM; IC50 (SR): < 50 nM; IC50 (LNcap; [2]): < 50 nM
CC1(C)CCC(c2ccc(Cl)cc2)=C(CN2CCN(c3ccc(C(=O)NS(=O)(=O)c4ccc(N[C@H](CCN5CCN(Cc6cc(F)c7c(c6)CN(C6CCC(=O)NC6=O)C7=O)CC5)CSc5ccccc5)c(S(=O)(=O)C(F)(F)F)c4)cc3)CC2)C1 (stereo partly drawn) [GT-03479, 4-(4-((4′-chloro-4,4-dimethyl-3,4,5,6-tetrahydro-[1,1′-biphenyl]-2-yl)methyl)piperazin-1-yl)-N-((4-(((2R)-4-(4-((2-(2,6-dioxopiperidin-3-yl)-7-fluoro-1-oxoisoindolin-5-yl)methyl)piperazin-1-yl)-1-(phenylthio)butan-2-yl)amino)-3-((trifluoromethyl)sulfonyl)phenyl)sulfonyl)benzamide] |  |  |  |  |  |  | IC50 (CCRF-CEM; [1]): < 50 nM; IC50 (MDA-MB-231): < 50 nM; IC50 (MM.1R): < 50 nM; IC50 (MM.1S): < 50 nM; IC50 (HCC827): 100 to 500 nM; IC50 (SR): < 50 nM; IC50 (LNcap; [2]): < 50 nM
O=C1CCC(N2Cc3cc(CN4CCC(n5cc(NC(=O)c6cnn7ccc(N8CCOCC8)nc67)c(C(F)F)n5)CC4)cc(F)c3C2=O)C(=O)N1 (centres unmarked) [GT-03812, N-(3-(difluoromethyl)-1-(1-((2-(2,6-dioxopiperidin-3-yl)-7-fluoro-1-oxoisoindolin-5-yl)methyl)piperidin-4-yl)-1H-pyrazol-4-yl)-5-morpholinopyrazolo[1,5-a]pyrimidine-3-carboxamide] | 1000 to 5000 nM | 1000 to 5000 nM |  |  |  |  | IC50 (Mino): 100 to 500 nM; IC50 (MV-4-11): 100 to 500 nM
O=C1CCC(N2C(=O)c3ccc(CN4CCC(n5cc(NC(=O)c6cnn7ccc(N8CCOCC8)nc67)c(C(F)F)n5)CC4)cc3C2=O)C(=O)N1 (centres unmarked) [GT-03815, N-(3-(difluoromethyl)-1-(1-((2-(2,6-dioxopiperidin-3-yl)-1,3-dioxoisoindolin-5-yl)methyl)piperidin-4-yl)-1H-pyrazol-4-yl)-5-morpholinopyrazolo[1,5-a]pyrimidine-3-carboxamide] | 5000 to 10000 nM |  |  |  |  |  | IC50 (Mino): 1000 to 5000 nM
CC(C)Nc1cc(-n2ccc3cc(C#N)cnc32)ncc1C(=O)N[C@H]1CC[C@H](C(=O)NCc2ccc3c(c2)CN(C2CCC(=O)NC2=O)C3=O)CC1 (some centres unmarked) [GT-04077, 6-(5-cyano-1H-pyrrolo[2,3-b]pyridin-1-yl)-N-((1r,4r)-4-(((2-(2,6-dioxopiperidin-3-yl)-1-oxoisoindolin-5-yl)methyl)carbamoyl)cyclohexyl)-4-(isopropylamino)nicotinamide] |  |  |  |  |  |  | IC50 (Jurkat): < 50 nM; IC50 (CCRF-CEM; Table 19, IRAK4 inhibitor based): < 50 nM; IC50 (SU-DHL-4): 500 to 1000 nM; IC50 (LNcap; Table 19, IRAK4 inhibitor based, Lncap, read-out: IC50 inhibiting proliferation of tumor cells, Lncap): 100 to 500 nM; IC50 (SW620): 100 to 500 nM; IC50 (CAL-62): < 50 nM
O=C1CCC(N2Cc3c(ccc(CN4CCC(n5cc(NC(=O)c6coc(-c7ccnc(NCC(F)(F)F)c7)n6)c(C(F)F)n5)CC4)c3F)C2=O)C(=O)N1 (centres unmarked) [GT-04098, N-(3-(difluoromethyl)-1-(1-((2-(2,6-dioxopiperidin-3-yl)-4-fluoro-1-oxoisoindolin-5-yl)methyl)piperidin-4-yl)-1H-pyrazol-4-yl)-2-(2-((2,2,2-trifluoroethyl)amino)pyridin-4-yl)oxazole-4-carboxamide] | < 50 nM | < 50 nM | < 50 nM | < 50 nM | < 50 nM | < 50 nM | 
O=C1CCC(N2Cc3cc(CN4CCC(n5cc(NC(=O)c6coc(-c7ccnc(NCC(F)(F)F)c7)n6)c(C(F)F)n5)CC4)cc(F)c3C2=O)C(=O)N1 (centres unmarked) [GT-04099, N-(3-(difluoromethyl)-1-(1-((2-(2,6-dioxopiperidin-3-yl)-7-fluoro-1-oxoisoindolin-5-yl)methyl)piperidin-4-yl)-1H-pyrazol-4-yl)-2-(2-((2,2,2-trifluoroethyl)amino)pyridin-4-yl)oxazole-4-carboxamide] | 100 to 500 nM | < 50 nM | < 50 nM | < 50 nM | < 50 nM | < 50 nM | 
O=C1CCC(N2Cc3cc(CN4CCC(n5cc(NC(=O)c6coc(-c7ccnc(NCC(F)(F)F)c7)n6)c(C(F)F)n5)CC4)ccc3C2=O)C(=O)N1 (centres unmarked) [GT-04120, N-(3-(difluoromethyl)-1-(1-((2-(2,6-dioxopiperidin-3-yl)-1-oxoisoindolin-5-yl)methyl)piperidin-4-yl)-1H-pyrazol-4-yl)-2-(2-((2,2,2-trifluoroethyl)amino)pyridin-4-yl)oxazole-4-carboxamide] | < 50 nM | < 50 nM | < 50 nM | < 50 nM | < 50 nM | < 50 nM | 
O=C1CCC(N2Cc3cc(CN4CCC(n5cc(NC(=O)c6coc(-c7ccnc(NCC8CC8)c7)n6)c(C(F)F)n5)CC4)ccc3C2=O)C(=O)N1 (centres unmarked) [GT-04153, 2-(2-((cyclopropylmethyl)amino)pyridin-4-yl)-N-(3-(difluoromethyl)-1-(1-((2-(2,6-dioxopiperidin-3-yl)-1-oxoisoindolin-5-yl)methyl)piperidin-4-yl)-1H-pyrazol-4-yl)oxazole-4-carboxamide] | < 50 nM | < 50 nM | < 50 nM | < 50 nM | < 50 nM | < 50 nM | 
